Counter-ions that a name gives are not always drawn. Like-named read-outs stand apart in the source and are kept apart here.
Key:
[1] = Azelastine hydrate production-suppressing effect of each of the additives (azelastine hydrochloride solutions, pH 8); assay type: physicochemical; design: key to Effect Against Production of Azelastine Hydrates: absolutely no hydrate formation; .largecircle.: absolutely no hydrate formation; Δ: hydrate formation decreased compared to the produced water; X: no hydrate production-suppressing effect; details: for Effect Against Production of Azelastine Hydrates: 0.3 g azelastine hydrochloride in 100 ml, pH 8
Protocol: The azelastine hydrate production-suppressing effect was tested for each of the additives in azelastine hydro-chloride solutions. Each of the additives were added to 0.3 g of azelastine hydrochloride, the pH was adjusted to 8 with sodium hydroxide, and purified water was added to a total volume of 100 ml to determine whether or not azelastine hydrate crystals were produced. The identification of azelastine hydrate was carried out by filtering off the precipitates produced in the test solutions, drying them at room temperature, measuring thermal analysis (TG-DTA) (FIG. 1) and IR spectrum (azelastine hydrochloride reference standard: FIG. 2; azelastine hydrate: FIG. 3), and then comparing them to the standard.
Cases in which there was absolutely no hydrate formation are represented by [o], cases in which hydrate formation decreased compared to the produced water are represented by [Δ], and cases in which there was no hydrate production-suppressing effect are represented by [X].

[2] = cited from earlier work
[3] = cited from earlier work; for percutaneous absorbability: technique of SHO 63-278108
[4] = cited from earlier work; remark: listed apart in the source
[5] = dependence on pH; cited from earlier work

## CC(=O)O [Acetic Acid, reference compound]
[1]
  suppression of the production of azelastine hydrate (in words): not exhibited
[1]; amount added 0.5%
  Effect Against Production of Azelastine Hydrates: X

## CCCCCCCCCCCCCCCCCCCCCC(=O)O [Behenic Acid]
[1]; amount added 0.5%
  Effect Against Production of Azelastine Hydrates: .largecircle.

## CCCC(=O)O [Butyric Acid, reference compound]
[1]
  suppression of the production of azelastine hydrate (in words): not exhibited
[1]; amount added 0.5%
  Effect Against Production of Azelastine Hydrates: X

## CCCCCCCCCC(=O)O [Capric Acid]
[1]; amount added 0.5%
  Effect Against Production of Azelastine Hydrates: .largecircle.

## CCCCCC(=O)O [Caproic Acid, reference compound]
[1]; amount added 0.5%
  Effect Against Production of Azelastine Hydrates: X

## CCCCCCCC(=O)O [Caprylic Acid]
[1]; amount added 0.5%
  Effect Against Production of Azelastine Hydrates: Δ

## CCCCCCCC/C=C\CCCCCCCCCCCC(=O)O [Erucid Acid]
[1]; amount added 0.5%
  Effect Against Production of Azelastine Hydrates: .largecircle.

## CCO [Ethanol, reference compound]
[1]; amount added 30%
  Effect Against Production of Azelastine Hydrates: X

## CC(C)CCCCCCCCCCCCCCC(=O)O [Isostearic Acid]
[1]; amount added 0.5%
  Effect Against Production of Azelastine Hydrates: .largecircle.

## CCCCCCCCCCCC(=O)O [Lauric Acid]
[1]; amount added 0.5%
  Effect Against Production of Azelastine Hydrates: .largecircle.

## CC/C=C\C/C=C\C/C=C\CCCCCCCC(=O)O [Linolenic Acid]
[1]; amount added 0.5%
  Effect Against Production of Azelastine Hydrates: .largecircle.

## CCCCC/C=C\C/C=C\CCCCCCCC(=O)O [Linolic Acid]
[1]; amount added 0.5%
  Effect Against Production of Azelastine Hydrates: .largecircle.

## CCCCCCCCCCCCCC(=O)O [Myristic Acid]
[1]; amount added 0.1%
  Effect Against Production of Azelastine Hydrates: Δ
[1]; amount added 0.3%
  Effect Against Production of Azelastine Hydrates: .largecircle.
[1]; amount added 0.5%
  Effect Against Production of Azelastine Hydrates: .largecircle.

## CCCCCCCC/C=C\CCCCCCCC(=O)O [Oleic Acid]
[1]; amount added 0.1%
  Effect Against Production of Azelastine Hydrates: Δ
[1]; amount added 0.3%
  Effect Against Production of Azelastine Hydrates: .largecircle.
[1]; amount added 1% (1 or 1.0)
  Effect Against Production of Azelastine Hydrates: .largecircle.

## CCCCCCCCCCCCCCCC(=O)O [Palmitic Acid]
[1]; amount added 0.5%
  Effect Against Production of Azelastine Hydrates: .largecircle.

## CCCCCC/C=C\CCCCCCCC(=O)O [Palmitoleic Acid]
[1]; amount added 0.5%
  Effect Against Production of Azelastine Hydrates: .largecircle.

## CCC(=O)O [Propionic Acid, reference compound]
[1]
  suppression of the production of azelastine hydrate (in words): not exhibited
[1]; amount added 0.3%
  Effect Against Production of Azelastine Hydrates: X

## CC(O)CO (stereo not drawn) [Propylene glycol, reference compound]
[1]; amount added 30%
  Effect Against Production of Azelastine Hydrates: X

## CCCCCCCCCCCCCCCCCC(=O)O [Stearic Acid]
[1]; amount added 0.5%
  Effect Against Production of Azelastine Hydrates: .largecircle.

## CN1CCCC(n2nc(Cc3ccc(Cl)cc3)c3ccccc3c2=O)CC1 (stereo not drawn) [azelastine hydrate]
[2]; in aqueous preparation, crystalline hydrates of non-dissociation type molecules
  solubility: poor solubility

## CN1CCCC(n2nc(Cc3ccc(Cl)cc3)c3ccccc3c2=O)CC1 (stereo not drawn) [azelastine hydrochloride]
[3]; technique of SHO 61-254532
  increase in absorbability: no increase in absorbability was observed
[3]; amount of azelastine hydrochloride high compared to the base
  percutaneous absorbability: marked improvement
[3]; amount of azelastine hydrochloride low compared to the base
  percutaneous absorbability: poor percutaneous absorbability
[2]; solvents which may be used in pharmaceutical compositions
  solubility in solvents: low solubility

## CN1CCCC(n2nc(Cc3ccc(Cl)cc3)c3ccccc3c2=O)CC1 (stereo not drawn) [azelastine]
[4]
  acid dissociation constant (pKa): approximately 9.5

## CN1[C@@H]2C[C@@H](OC(=O)[C@H](CO)c3ccccc3)C[C@H]1[C@@H]1O[C@@H]12 [scopolamine]
[5]
  percutaneous penetration speed: in direct proportion to the pH

Source: patent publication US6117864A, “Methods employing stable preparation containing azelastine hydrochloride” (ASTA Medica Aktiengesellschaft, priority 1992, dated 2000)
